Patent US20250376472A1, “3-(PHENYLSULFONYL)-[1,2,3]TRIAZOLO[1,5A]QUINAZOLIN-5(4H)-ONE DERIVATIVES” (priority 2022, published 2025)

Target: T1, AgrA (Staphylococcus aureus, UniProt P0A0I7)
T1 construct: endogenous in cells; host or cells: S. aureus USA300 strain UAMS-1625 carrying a P3-lacZ reporter plasmid
Assay: cell-based
Design: species or system S. aureus
Settings: for Ratio IC50 (in presence of HSA)/IC50 (in absence of HSA): 40 mg/mL HSA versus no HSA
Procedure: The inventive compounds are 3-(phenylsulfonyl)-[1,2,3]triazolo[1,5a]quinazolin-5(4h)-one derivatives comprising an N-bound piperazine or homopiperazine at the 8-position of the [1,2,3]triazolo[1,5a]quinazolin-5(4h)-one core, further substituted (on the second nitrogen atom) by an (optionally substituted) acetyl or propionyl amide group. […] Specifically, the reporter gene lacZ (which encodes the protein product β-galactosidase) was transfected into S. aureus with a plasmid under control of the P3 promoter. The compounds were serially diluted in lysogeny broth (LB), and incubated with S. aureus. Following incubation, the S. aureus cells were lysed and treated with 4-methylumbelliferyl-galactopyranoside (MUG). The β-galactosidase produced by expression of lacZ cleaved the MUG into galactopyranose and 4-methylumbelliferone, which was measured by fluorescence.
The resulting reporter strain was used to measure AgrA inhibitory activity as follows. From an overnight culture plate, cells were resuspended in 0.9% (w/v) saline solution and bacterial inoculum was prepared in LB medium with 5×10^5 CFU/ml. Compounds were two-fold serially diluted in LB and 50 μL of this 10× concentrated samples were added into the 96-deep well plate. 500 μL of bacterial suspension was finally added to the compounds or DMSO control. Plates were covered and incubated with shaking at 37° C. After 18 hours incubation, 100 μL was transferred to a new clear 96-well plate and the OD600 was measured using a TECAN Infinite F200 microplate reader to control for growth inhibition. Another 100 μL was transferred to a new black 96-well plate containing 30 μL of lysis buffer (20 mM Tris/HCl, 3 mM MgCl2, 0.5% Tween 20 (v/v), 0.5% NP-40 (v/v)) and the plate was incubated with shaking at 37° C. for 60 min. 20 μL of the substrate MUG (4-Methylumbelliferyl O-D-galactopyranoside) at 0.25 mg/ml was added and the fluorescence (excitation: 360 nm, emission: 450 mu) was measured with a TECAN Infinite F200 microplate reader after 3 hours incubation at 37° C. with shaking. The IC50 was determined using GraphPad PRISM after normalization to DMSO control.

[1] = LB medium supplemented with human serum albumin 40 mg/mL
[2] = LB medium, no human serum albumin, 18 hours incubation
[3] = IC50 at 40 mg/mL HSA, LB medium supplemented with human serum albumin 40 mg/mL
[4] = IC50 without HSA, LB medium, no human serum albumin, 18 hours incubation

T1 sequence (P0A0I7 whole entry): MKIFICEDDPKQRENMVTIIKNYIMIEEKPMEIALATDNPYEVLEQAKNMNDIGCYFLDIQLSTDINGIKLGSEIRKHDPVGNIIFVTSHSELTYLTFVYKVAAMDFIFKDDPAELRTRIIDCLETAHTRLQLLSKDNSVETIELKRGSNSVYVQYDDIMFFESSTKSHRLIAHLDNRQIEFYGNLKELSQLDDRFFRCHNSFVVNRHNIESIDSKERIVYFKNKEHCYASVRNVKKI

| SMILES | Ratio IC50 (in presence of HSA)/IC50 (in absence of HSA) | IC50 at 40 mg/mL HSA [1] | IC50 without HSA [2] | IC50 [3] | IC50 [4] |
| --- | --- | --- | --- | --- | --- |
| Cc1ccc(S(=O)(=O)c2nnn3c2[nH]c(=O)c2ccc(N4CCN(CC(=O)N5CC(C)CC(C)C5)CC4)cc23)c(C)c1 (mixture of isomers) [Compound 63] | ++ (++: 25 < ratio ≤ 125) | ++ (++: 10 μg/mL < IC50 ≤ 50 μg/mL) | +++ (+++: IC50 ≤ 1 μg/mL) | – | – |
| Cc1ccc(S(=O)(=O)c2nnn3c2[nH]c(=O)c2ccc(N4CCN(CC(=O)N5CCCC5)CC4)cc23)c(C)c1 [Compound 1, 3-(2,4-dimethylphenyl)sulfonyl-8-[4-(2-oxo-2-pyrrolidin-1-yl-ethyl)piperazin-1-yl]-4H-triazolo[1,5-a]quinazolin-5-one] | ++ (++: 25 < ratio ≤ 125) | – | – | 18.2 to 91 µM | < 1.82 µM |
| Cc1ccc(S(=O)(=O)c2nnn3c2[nH]c(=O)c2ccc(N4CCN(CC(=O)N5CCOCC5)CC4)cc23)c(C)c1 [Compound 2, 3-(2,4-dimethylphenyl)sulfonyl-8-[4-(2-morpholino-2-oxo-ethyl)piperazin-1-yl]-4H-triazolo[1,5-a]quinazolin-5-one] | +++ (+++: ratio ≤ 25) | – | – | < 17.7 µM | < 1.77 µM |
| CNC(=O)CN1CCN(c2ccc3c(=O)[nH]c4c(S(=O)(=O)c5ccc(C)cc5C)nnn4c3c2)CC1 [Compound 3] | – | – | – | < 19.6 µM | < 1.96 µM |
| CCNC(=O)CN1CCN(c2ccc3c(=O)[nH]c4c(S(=O)(=O)c5ccc(C)cc5C)nnn4c3c2)CC1 [Compound 4] | – | – | – | < 19.1 µM | < 1.91 µM |
| CCCNC(=O)CN1CCN(c2ccc3c(=O)[nH]c4c(S(=O)(=O)c5ccc(C)cc5C)nnn4c3c2)CC1 [Compound 5] | – | – | – | 18.6 to 93 µM | < 1.86 µM |
| Cc1ccc(S(=O)(=O)c2nnn3c2[nH]c(=O)c2ccc(N4CCN(CC(=O)NC(C)C)CC4)cc23)c(C)c1 [Compound 6] | – | – | – | < 18.6 µM | < 1.86 µM |
| Cc1ccc(S(=O)(=O)c2nnn3c2[nH]c(=O)c2ccc(N4CCN(CC(=O)NCC(C)C)CC4)cc23)c(C)c1 [Compound 7] | – | – | – | 18.1 to 90.6 µM | < 1.81 µM |
| Cc1ccc(S(=O)(=O)c2nnn3c2[nH]c(=O)c2ccc(N4CCN(CC(=O)N(C)C)CC4)cc23)c(C)c1 [Compound 8] | – | – | – | 19.1 to 95.5 µM | < 1.91 µM |
| CCN(C)C(=O)CN1CCN(c2ccc3c(=O)[nH]c4c(S(=O)(=O)c5ccc(C)cc5C)nnn4c3c2)CC1 [Compound 9] | – | – | – | 18.6 to 93 µM | < 1.86 µM |
| CCCCCNC(=O)CN1CCN(c2ccc3c(=O)[nH]c4c(S(=O)(=O)c5ccc(C)cc5C)nnn4c3c2)CC1 [Compound 10] | – | – | – | 17.7 to 88.4 µM | < 1.77 µM |
| Cc1ccc(S(=O)(=O)c2nnn3c2[nH]c(=O)c2ccc(N4CCN(CC(=O)NCCC(C)C)CC4)cc23)c(C)c1 [Compound 11] | – | – | – | 17.7 to 88.4 µM | < 1.77 µM |
| CCCCCCNC(=O)CN1CCN(c2ccc3c(=O)[nH]c4c(S(=O)(=O)c5ccc(C)cc5C)nnn4c3c2)CC1 [Compound 12] | – | – | – | 17.2 to 86.2 µM | < 1.72 µM |
| Cc1ccc(S(=O)(=O)c2nnn3c2[nH]c(=O)c2ccc(N4CCN(CC(=O)NCCC(C)(C)C)CC4)cc23)c(C)c1 [Compound 13] | – | – | – | 17.2 to 86.2 µM | < 1.72 µM |
| Cc1ccc(S(=O)(=O)c2nnn3c2[nH]c(=O)c2ccc(N4CCN(CC(=O)NCCC(F)(F)F)CC4)cc23)c(C)c1 [Compound 14] | – | – | – | 16.9 to 84.5 µM | < 1.69 µM |
| Cc1ccc(S(=O)(=O)c2nnn3c2[nH]c(=O)c2ccc(N4CCN(CC(=O)NCCCC(F)(F)F)CC4)cc23)c(C)c1 [Compound 15] | – | – | – | 16.5 to 82.6 µM | < 1.65 µM |
| COCCNC(=O)CN1CCN(c2ccc3c(=O)[nH]c4c(S(=O)(=O)c5ccc(C)cc5C)nnn4c3c2)CC1 [Compound 16] | – | – | – | < 18.1 µM | < 1.81 µM |
| COCCCNC(=O)CN1CCN(c2ccc3c(=O)[nH]c4c(S(=O)(=O)c5ccc(C)cc5C)nnn4c3c2)CC1 [Compound 17] | – | – | – | 17.6 to 88.1 µM | < 1.76 µM |

| SMILES | Ratio IC50 (in presence of HSA)/IC50 (in absence of HSA) | IC50 at 40 mg/mL HSA [1] | IC50 without HSA [2] | IC50 [3] | IC50 [4] |
| --- | --- | --- | --- | --- | --- |
| CSCCNC(=O)CN1CCN(c2ccc3c(=O)[nH]c4c(S(=O)(=O)c5ccc(C)cc5C)nnn4c3c2)CC1 [Compound 18] | – | – | – | 17.6 to 87.8 µM | < 1.76 µM |
| Cc1ccc(S(=O)(=O)c2nnn3c2[nH]c(=O)c2ccc(N4CCN(CC(=O)NCCO)CC4)cc23)c(C)c1 [Compound 19] | – | – | – | 18.5 to 92.7 µM | < 1.85 µM |
| Cc1ccc(S(=O)(=O)c2nnn3c2[nH]c(=O)c2ccc(N4CCN(CC(=O)NCCCCO)CC4)cc23)c(C)c1 [Compound 20] | – | – | – | 17.6 to 88.1 µM | < 1.76 µM |
| Cc1ccc(S(=O)(=O)c2nnn3c2[nH]c(=O)c2ccc(N4CCN(CC(=O)NCCOCCO)CC4)cc23)c(C)c1 [Compound 21] | – | – | – | 17.1 to 85.7 µM | < 1.71 µM |
| Cc1ccc(S(=O)(=O)c2nnn3c2[nH]c(=O)c2ccc(N4CCN(CC(=O)NCCOCCOCCO)CC4)cc23)c(C)c1 [Compound 22] | – | – | – | 15.9 to 79.7 µM | 1.59 to 7.97 µM |
| C#CCNC(=O)CN1CCN(c2ccc3c(=O)[nH]c4c(S(=O)(=O)c5ccc(C)cc5C)nnn4c3c2)CC1 [Compound 23] | – | – | – | < 18.7 µM | 1.87 to 9.37 µM |
| CCCNC(=O)CN1CCCN(c2ccc3c(=O)[nH]c4c(S(=O)(=O)c5ccc(C)cc5C)nnn4c3c2)CC1 [Compound 30] | – | – | – | 18.1 to 90.6 µM | < 1.81 µM |
| COCCNC(=O)CN1CCCN(c2ccc3c(=O)[nH]c4c(S(=O)(=O)c5ccc(C)cc5C)nnn4c3c2)CC1 [Compound 31] | +++ (+++: ratio ≤ 25) | +++ (+++: IC50 ≤ 10 μg/mL) | +++ (+++: IC50 ≤ 1 μg/mL) | – | – |
| Cc1ccc(S(=O)(=O)c2nnn3c2[nH]c(=O)c2ccc(N4CCCN(CC(=O)NCCO)CC4)cc23)c(C)c1 [Compound 32] | – | – | – | 18.1 to 90.3 µM | 1.81 to 9.03 µM |
| Cc1ccc(S(=O)(=O)c2nnn3c2[nH]c(=O)c2ccc(N4CCN(CC(=O)NC5CC5)CC4)cc23)c(C)c1 [Compound 33] | – | – | – | 18.7 to 93.3 µM | < 1.87 µM |
| Cc1ccc(S(=O)(=O)c2nnn3c2[nH]c(=O)c2ccc(N4CCN(CC(=O)NC5CCC5)CC4)cc23)c(C)c1 [Compound 34] | – | – | – | 18.2 to 91 µM | < 1.82 µM |
| Cc1ccc(S(=O)(=O)c2nnn3c2[nH]c(=O)c2ccc(N4CCN(CC(=O)NC5CCCC5)CC4)cc23)c(C)c1 [Compound 35] | – | – | – | < 17.7 µM | < 1.77 µM |
| Cc1ccc(S(=O)(=O)c2nnn3c2[nH]c(=O)c2ccc(N4CCN(CC(=O)NCC5CC5)CC4)cc23)c(C)c1 [Compound 36] | – | – | – | 18.2 to 91 µM | < 1.82 µM |
| Cc1ccc(S(=O)(=O)c2nnn3c2[nH]c(=O)c2ccc(N4CCN(CC(=O)NCC5CCCC5)CC4)cc23)c(C)c1 [Compound 37] | – | – | – | < 17.3 µM | < 1.73 µM |
| Cc1ccc(S(=O)(=O)c2nnn3c2[nH]c(=O)c2ccc(N4CCN(CC(=O)NC5CCCCC5)CC4)cc23)c(C)c1 [Compound 38] | – | – | – | 17.3 to 86.5 µM | < 1.73 µM |
| Cc1ccc(S(=O)(=O)c2nnn3c2[nH]c(=O)c2ccc(N4CCN(CC(=O)N(C)C5CCCCC5)CC4)cc23)c(C)c1 [Compound 39] | – | – | – | 16.9 to 84.5 µM | < 1.69 µM |
| Cc1ccc(S(=O)(=O)c2nnn3c2[nH]c(=O)c2ccc(N4CCN(CC(=O)NCC5CCCCC5)CC4)cc23)c(C)c1 [Compound 40] | – | – | – | < 16.9 µM | < 1.69 µM |
| Cc1ccc(S(=O)(=O)c2nnn3c2[nH]c(=O)c2ccc(N4CCN(CC(=O)NC5CCC(N(C)C)CC5)CC4)cc23)c(C)c1 (stereo not shown) [Compound 42] | – | – | – | 16.1 to 80.5 µM | < 1.61 µM |
